≈ marks a conversion by molar mass, not a printed value. Where two headings read alike, the source gives them in different places.
Legend:
physchem = settings: pH 7.4, aqueous buffer, kinetic from dmso stock
Procedure, shortened: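 DMSO doubling dilutions were diluted twenty-fold into 100 mM citrate (pH 4), PBS (pH 7.4) or carbonate-bicarbonate (pH 9). After 24 h equilibration at room temperature, absorbance was read at 620 nm. The reported value is the highest concentration without measurable precipitate.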

[1] = tested on: Staphylococcus aureus (Isolate ID ATCC 29213); assay: Antibacterial activity, MIC, S. aureus; assay type: cell-based; settings: Staphylococcus aureus, ATCC29213, Gram positive strain; broth microdilution or agar dilution
Procedure, shortened: (§1)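 Broth microdilution or agar dilution per CLSI M7-A7; MIC read as susceptibility endpoint in liquid or solid medium.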

[2] = tested on: Enterococcus faecalis (Isolate ID ATCC 29212); assay: Antibacterial activity, MIC, E. faecalis; assay type: cell-based; settings: Enterococcus faecalis, ATCC29212; Gram positive strain; broth microdilution or agar dilution
Procedure, shortened: as §1

[3] = tested on: Streptococcus pyogenes (Isolate ID ATCC 51339); assay: Antibacterial activity, MIC, S. pyogenes; assay type: cell-based; settings: Streptococcus pyogenes, ATCC51339, Gram positive strain; broth microdilution or agar dilution
Procedure, shortened: as §1

[4] = tested on: Haemophilus influenzae (Isolate ID ATCC 49247); assay: Antibacterial activity, MIC, H. influenzae; assay type: cell-based; settings: Haemophilus influenzae, ATCC49247; Gram negative strain; broth microdilution or agar dilution
Procedure, shortened: as §1

[5] = Pharmacokinetic assay, IV and oral PK profile, mouse; assay type: in vivo; settings: plasma; for bioavailability: [AUCoral/AUCiv]×100%, 3 mg/kg, read-out: F (%) bioavailability
Description: (§2) Pharmacokinetic Assays: Determination of PK Profile
(§3) The pharmacokinetic profiles of compounds were determined by measuring the compound concentration in plasma by LC/MS/MS following a single intravenous or peroral administration of the compounds at a dose of 3 mg/kg. The concentrations described are the mean plasma concentrations at each time point from three animals. Intravenous dose formulation was administered as a single bolus dose through the tail vein. Oral dose formulation was administered to animals by an oral gavage needle. In both cases the dose volume was 5.0 mL/kg. Blood was collected from rats using a jugular vein catheter and from anesthetized mice through a capillary guided into the retro-orbital plexus. The collected blood was centrifuged to obtain plasma and the compounds extracted into methanol prior to determining the compound concentration by LC/MS/MS. The results for selected compounds of the invention are shown in FIGS. 2 to 8 where the X axis denotes time (hours) and the Y axis denotes plasma concentration (ng/mL). The Cmaxoral (μg/mL), AUCiv (μg·hr/mL), AUCoral (μg.hr/mL) and F(%) values are provided in the following table where Cmaxoral is the maximum oral concentration, AUC is area under the curve for intraveneous (IV) and oral and F (%) represents compound bioavailability as calculated by [AUCoral/AUCiv]×100%.

[6] = Pharmacokinetic assay, IV and oral PK profile, rat; assay type: in vivo; settings: plasma; for bioavailability: [AUCoral/AUCiv]×100%, 3 mg/kg, read-out: F (%) bioavailability
Description: as §2, §3

[7] = target: T1, Gyrase enzyme (A2B2 complex from Staphylococcus aureus) (UniProt P0A0K8); assay: Gyrase ATPase assay (S. aureus enzyme); assay type: biochemical
T1 construct: 2 mU/μl Gyrase enzyme (A2B2 complex from Staphylococcus aureus); Alternatively
T1 sequence (P0A0K8 whole entry, one chain of several): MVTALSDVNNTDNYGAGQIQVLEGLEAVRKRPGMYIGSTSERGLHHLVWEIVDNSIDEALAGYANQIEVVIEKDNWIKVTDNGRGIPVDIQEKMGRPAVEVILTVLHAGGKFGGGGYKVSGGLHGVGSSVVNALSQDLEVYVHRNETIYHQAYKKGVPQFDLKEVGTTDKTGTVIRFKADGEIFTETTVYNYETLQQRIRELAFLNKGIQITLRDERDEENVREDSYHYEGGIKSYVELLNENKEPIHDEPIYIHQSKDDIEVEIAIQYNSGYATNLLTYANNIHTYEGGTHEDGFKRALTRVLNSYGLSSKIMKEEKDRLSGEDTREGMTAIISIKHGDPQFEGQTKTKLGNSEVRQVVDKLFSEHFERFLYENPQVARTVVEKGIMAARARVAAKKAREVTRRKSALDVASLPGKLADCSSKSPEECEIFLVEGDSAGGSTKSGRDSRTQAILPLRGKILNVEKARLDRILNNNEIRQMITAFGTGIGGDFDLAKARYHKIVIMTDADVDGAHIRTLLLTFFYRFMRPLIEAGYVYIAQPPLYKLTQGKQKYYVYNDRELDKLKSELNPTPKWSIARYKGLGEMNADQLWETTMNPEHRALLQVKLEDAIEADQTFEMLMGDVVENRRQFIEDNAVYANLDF
Description: On-Target Enzyme Assay: Determination of Gyrase ATPase Activity
Gyrase converts ATP into ADP and inorganic phosphate. The released phosphate can be detected by the addition of malachite green solution and measured by monitoring the increase in absorbance at 600 nm. The ATPase assay is carried out in a buffer containing 2 mU/μl Gyrase enzyme (A2B2 complex from Staphylococcus aureus), 0.08 mg/ml double-stranded DNA, 8 mM HEPES.KOH pH 7.6, 100 mM K glutamate, 2 mM Mg acetate, 2 mM DTT, 0.01 mg/ml BSA, and 5% DMSO solution containing the inhibitor. Alternatively, the ATPase assay is carried out in a buffer containing 4.8 μg/mL Gyrase enzyme (A2B2 complex from Escherichia coli), 0.08 μg/mL ssDNA, 35 mM Tris pH 7.5, 24 mM KCl, 2 mM MgCl2, 6.5% Glycerol, 2 mM DTT, 1.8 mM Spermidine, 0.5 mg/mL BSA and 5% DMSO solution containing the inhibitor. The reaction is started by adding ATP to a final concentration of 1 mM and allowed to incubate at 30° C. for 60 minutes. The reaction is stopped by adding […] of malachite green solution (0.034% malachite green, 10 mM ammonium molybdate, 1 M HCl, 3.4% ethanol, 0.01% tween 20). Colour is allowed to develop for 5 minutes and the absorbance at 600 nm is measured spectrophotometrically. The IC50 values are determined from the absorbance readings using no compound and no enzyme controls.

[8] = Solubility Range (maximum solubility)
[9] = po, single peroral dose 3 mg/kg, read-out: AUCoral
[10] = single intravenous dose 3 mg/kg, read-out: AUCiv

SMILES: CCNC(=O)Nc1nc2cc(-c3ccc(N4CCC(C)(C(=O)O)CC4)nc3)cc(-c3ccccn3)c2s1 [Compound 4]
- solubility at 24 h (physchem; Max Solubility): ≥ 800 µg/mL
- solubility at 24 h (physchem; Solubility (pH 7.4)): ≥ 800 µg/mL
- solubility at 24 h (physchem; Solubility Range): > 800 µg/mL
- solubility at 24 h (physchem; [8]): > 800 µg/mL
- MIC [1]: 0.25 to 1 µg/mL (≈ 0.484 to 1.94 µM)
- MIC [2]: ≤ 0.25 µg/mL
- MIC [3]: ≤ 0.25 µg/mL
- MIC [4]: 1 to 16 µg/mL (≈ 1.94 to 31 µM)
- bioavailability ([5]; po): 33%
- AUC [5, 9]: 2500 ng·h/mL
- AUC [5, 10]: 7600 ng·h/mL
- Cmaxoral ([5]; single peroral dose 3 mg/kg): 1700 ng/mL
- bioavailability ([6]; po): 31%
- AUC [6, 9]: 2100 ng·h/mL
- AUC [6, 10]: 6600 ng·h/mL
- Cmaxoral ([6]; single peroral dose 3 mg/kg): 600 ng/mL

SMILES: CCNC(=O)Nc1nc2cc(-c3cnc(N4CCC(C)(C(=O)O)CC4)nc3)cc(/C(C)=N/OC)c2s1 [Compound 88, 1-[5-[2-(ethylcarbamoylamino)-7-[(E)-N-methoxy-C-methyl-carbonimidoyl]-1,3-benzothiazol-5-yl]pyrimidin-2-yl]-4-methyl-piperidine-4-carboxylic acid]
- solubility at 24 h (physchem; Max Solubility): ≥ 800 µg/mL
- solubility at 24 h (physchem; Solubility (pH 7.4)): ≥ 800 µg/mL
- solubility at 24 h (physchem; Solubility Range): > 800 µg/mL
- solubility at 24 h (physchem; [8]): > 800 µg/mL
- MIC [1]: ≤ 0.25 µg/mL
- MIC [2]: ≤ 0.25 µg/mL
- MIC [3]: ≤ 0.25 µg/mL
- MIC [4]: 1 to 16 µg/mL (≈ 1.95 to 31.3 µM)
- bioavailability ([5]; po): 56%
- AUC [5, 9]: 3400 ng·h/mL
- AUC [5, 10]: 6100 ng·h/mL
- Cmaxoral ([5]; single peroral dose 3 mg/kg): 2000 ng/mL

SMILES: CCNC(=O)Nc1nc2cc(-c3cnc(N4CCC(CC)(C(=O)O)CC4)nc3)cc(-c3ccccn3)c2s1 [Compound 98]
- solubility at 24 h (physchem; Solubility (pH 7.4)): ≥ 800 µg/mL
- solubility at 24 h (physchem; Solubility Range): > 800 µg/mL
- MIC [1]: ≤ 0.25 µg/mL
- MIC [2]: ≤ 0.25 µg/mL
- MIC [3]: ≤ 0.25 µg/mL
- MIC [4]: 1 to 16 µg/mL (≈ 1.88 to 30.1 µM)
- bioavailability ([5]; po): 87%
- AUC [5, 9]: 12500 ng·h/mL
- AUC [5, 10]: 14300 ng·h/mL
- Cmaxoral ([5]; single peroral dose 3 mg/kg): 6100 ng/mL
- bioavailability ([6]; po): 80.4%
- AUC [6, 9]: 22200 ng·h/mL
- AUC [6, 10]: 27700 ng·h/mL
- Cmaxoral ([6]; single peroral dose 3 mg/kg): 3500 ng/mL

SMILES: C=CCC1(C(=O)O)CCN(c2ncc(-c3cc(-c4ccccn4)c4sc(NC(=O)NCC)nc4c3)cn2)CC1 [Compound 136]
- solubility at 24 h (physchem; Max Solubility): ≥ 800 µg/mL
- solubility at 24 h (physchem; Solubility (pH 7.4)): ≥ 800 µg/mL
- solubility at 24 h (physchem; Solubility Range): > 800 µg/mL
- solubility at 24 h (physchem; [8]): > 800 µg/mL
- MIC [1]: ≤ 0.25 µg/mL
- MIC [2]: ≤ 0.25 µg/mL
- MIC [3]: ≤ 0.25 µg/mL
- MIC [4]: 1 to 16 µg/mL (≈ 1.84 to 29.4 µM)
- bioavailability ([5]; po): 83%
- AUC [5, 9]: 16500 ng·h/mL
- AUC [5, 10]: 20000 ng·h/mL
- Cmaxoral ([5]; single peroral dose 3 mg/kg): 4400 ng/mL
- bioavailability ([6]; po): 95.9%
- AUC [6, 9]: 34800 ng·h/mL
- AUC [6, 10]: 36300 ng·h/mL
- Cmaxoral ([6]; single peroral dose 3 mg/kg): 5500 ng/mL

SMILES: CCNC(=O)Nc1nc2cc(-c3cnc(N4CCC(COC)(C(=O)O)CC4)nc3)cc(-c3ccccn3)c2s1 [Compound 141]
- solubility at 24 h (physchem; Max Solubility): ≥ 800 µg/mL
- solubility at 24 h (physchem; Solubility (pH 7.4)): ≥ 800 µg/mL
- solubility at 24 h (physchem; Solubility Range): > 800 µg/mL
- solubility at 24 h (physchem; [8]): > 800 µg/mL
- MIC [1]: ≤ 0.25 µg/mL
- MIC [2]: ≤ 0.25 µg/mL
- MIC [3]: ≤ 0.25 µg/mL
- MIC [4]: 1 to 16 µg/mL (≈ 1.83 to 29.2 µM)
- bioavailability ([6]; po): 8.9%
- AUC [6, 9]: 700 ng·h/mL
- AUC [6, 10]: 8300 ng·h/mL
- Cmaxoral ([6]; single peroral dose 3 mg/kg): 300 ng/mL

SMILES: CCNC(=O)Nc1nc2cc(-c3cnc(N4CCC(C(=O)O)(C5CC5)CC4)nc3)cc(-c3ccccn3)c2s1 [Compound 143]
- solubility at 24 h (physchem; Max Solubility): ≥ 800 µg/mL
- solubility at 24 h (physchem; Solubility (pH 7.4)): ≥ 800 µg/mL
- solubility at 24 h (physchem; Solubility Range): > 800 µg/mL
- solubility at 24 h (physchem; [8]): > 800 µg/mL
- MIC [1]: ≤ 0.25 µg/mL
- MIC [2]: ≤ 0.25 µg/mL
- MIC [3]: ≤ 0.25 µg/mL
- MIC [4]: 1 to 16 µg/mL (≈ 1.84 to 29.4 µM)
- bioavailability ([6]; po): 10%
- AUC [6, 9]: 4700 ng·h/mL
- AUC [6, 10]: 46900 ng·h/mL
- Cmaxoral ([6]; single peroral dose 3 mg/kg): 700 ng/mL

SMILES: CCNC(=O)Nc1nc2c(F)c(-c3cnc(N4CCC(C)(C(=O)O)CC4)nc3)cc(-c3ccccn3)c2s1 [Compound 161, 1-[5-[2-(ethylcarbamoylamino)-4-fluoro-7-(2-pyridyl)-1,3-benzothiazol-5-yl]pyrimidin-2-yl]-4-methyl-piperidine-4-carboxylic acid]
- solubility at 24 h (physchem; Max Solubility): ≥ 800 µg/mL
- solubility at 24 h (physchem; Solubility (pH 7.4)): ≥ 800 µg/mL
- solubility at 24 h (physchem; Solubility Range): > 800 µg/mL
- solubility at 24 h (physchem; [8]): > 800 µg/mL
- MIC [1]: ≤ 0.25 µg/mL
- MIC [2]: ≤ 0.25 µg/mL
- MIC [3]: ≤ 0.25 µg/mL
- MIC [4]: 0.25 to 1 µg/mL (≈ 0.467 to 1.87 µM)
- bioavailability ([6]; po): 87%
- AUC [6, 9]: 4200 ng·h/mL
- AUC [6, 10]: 4800 ng·h/mL
- Cmaxoral ([6]; single peroral dose 3 mg/kg): 700 ng/mL

SMILES: CCNC(=O)Nc1nc2cc(-c3nsc(N4CCC(CC)(C(=O)O)CC4)n3)cc(-c3ccccn3)c2s1 [Compound 232, 4-ethyl-1-(3-{2-[(ethylcarbamoyl)amino]-7-(pyridin-2-yl)-1,3-benzothiazol-5-yl}-1,2,4-thiadiazol-5-yl)piperidine-4-carboxylic acid]
- IC50 ([7]; read-out: Gyrase ATPase activity (IC50); enzyme source (S. aureus or E. coli) not given; 1 mM ATP, 30° C., 60 minutes): 930 nM
- MIC [1]: 1 to 16 µg/mL (≈ 1.86 to 29.8 µM)
- MIC [3]: > 16 µg/mL
- MIC [4]: > 16 µg/mL

SMILES: CCNC(=O)Nc1nc2cc(-c3cnc(N4CCC(CC)(C(=O)OCC)CC4)nc3)cc(-c3cnc(N4CCC(CC)(C(=O)OCC)CC4)nc3)c2o1 [Compound 234, Diethyl 1,1′-({2-[(ethylcarbamoyl)amino]-1,3-benzoxazole-5,7-diyl}dipyrimidine-5,2-diyl)bis(4-ethylpiperidine-4-carboxylate)]
- IC50 ([7]; enzyme source (S. aureus or E. coli) not given; 1 mM ATP, 30° C., 60 minutes; read-out: Gyrase ATPase activity (IC50)): > 1370 nM
- MIC [1]: > 16 µg/mL
- MIC [3]: > 16 µg/mL

— patent US9181234B2, “Antibacterial compounds” (priority 2010, dated 2015)
